Data published in PubChem BioAssay (NCI).
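Cultured in 96-well plates, cells were exposed to test compound for 48 hours across five concentrations. Definition used: TGI = concentration required for complete inhibition of growth.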

Key:
Experiment in all cases: growth of human tumour cells (NCI), 48 h
SF-295 CNS = system: SF-295 CNS
RXF 393 renal = system: RXF 393 renal
SK-MEL-28 melanoma = system: SK-MEL-28 melanoma
SN12C renal = system: SN12C renal
KM20L2 colon = system: KM20L2 colon
HOP-62 NSCLC = system: HOP-62 NSCLC
SNB-19 CNS = system: SNB-19 CNS
NCI-H522 lung = system: NCI-H522 lung
OVCAR-4 ovarian = system: OVCAR-4 ovarian
HT29 colon = system: HT29 colon
K-562 leukemia = system: K-562 leukemia
DLD-1 colon = system: DLD-1 colon
SW-620 colon = system: SW-620 colon
UO-31 renal = system: UO-31 renal
MALME-3M melanoma = system: MALME-3M melanoma
OVCAR-5 ovarian = system: OVCAR-5 ovarian
DMS 273 small cell lung = system: DMS 273 small cell lung
TK-10 renal = system: TK-10 renal
UACC-257 melanoma = system: UACC-257 melanoma
CAKI-1 renal = system: CAKI-1 renal
COLO 205 colon = system: COLO 205 colon
U251 CNS = system: U251 CNS
NCI-H226 lung = system: NCI-H226 lung
LOX IMVI melanoma = system: LOX IMVI melanoma
SK-OV-3 ovarian = system: SK-OV-3 ovarian
KM12 colon = system: KM12 colon
SNB-78 CNS = system: SNB-78 CNS
HCT-116 colon = system: HCT-116 colon
SF-268 CNS = system: SF-268 CNS
NCI-H460 lung = system: NCI-H460 lung
IGROV1 ovarian = system: IGROV1 ovarian
OVCAR-3 ovarian = system: OVCAR-3 ovarian
LXFL 529 NSCLC = system: LXFL 529 NSCLC
OVCAR-8 ovarian = system: OVCAR-8 ovarian
HCC-2998 colon = system: HCC-2998 colon
SF-539 CNS = system: SF-539 CNS
UACC-62 melanoma = system: UACC-62 melanoma
DMS 114 small cell lung = system: DMS 114 small cell lung
HL-60(TB) leukemia = system: HL-60(TB) leukemia
A498 renal = system: A498 renal
SR leukemia = system: SR leukemia
SNB-75 CNS = system: SNB-75 CNS
M19-MEL melanoma = system: M19-MEL melanoma
NCI-H23 lung = system: NCI-H23 lung
SK-MEL-2 melanoma = system: SK-MEL-2 melanoma
786-0 renal = system: 786-0 renal
SK-MEL-5 melanoma = system: SK-MEL-5 melanoma
MOLT-4 leukemia = system: MOLT-4 leukemia
HOP-18 NSCLC = system: HOP-18 NSCLC
RPMI-8226 leukemia = system: RPMI-8226 leukemia
CCRF-CEM leukemia = system: CCRF-CEM leukemia
HCT-15 colon = system: HCT-15 colon
A549 NSCLC = system: A549 NSCLC
HOP-92 NSCLC = system: HOP-92 NSCLC
M14 melanoma = system: M14 melanoma
ACHN renal = system: ACHN renal
XF 498 CNS = system: XF 498 CNS
EKVX NSCLC = system: EKVX NSCLC

Measured: TGI

NC(N)=C1CN(C2CCCCC2)C(=O)NC1=O
> 100 µM: SF-295 CNS | RXF 393 renal | SK-MEL-28 melanoma | SN12C renal | KM20L2 colon | HOP-62 NSCLC | SNB-19 CNS | NCI-H522 lung | OVCAR-4 ovarian | HT29 colon | K-562 leukemia | DLD-1 colon | SW-620 colon | UO-31 renal | MALME-3M melanoma | OVCAR-5 ovarian | DMS 273 small cell lung | TK-10 renal | UACC-257 melanoma | CAKI-1 renal | COLO 205 colon | U251 CNS | NCI-H226 lung | LOX IMVI melanoma | SK-OV-3 ovarian | KM12 colon | SNB-78 CNS | HCT-116 colon | SF-268 CNS | NCI-H460 lung | IGROV1 ovarian | OVCAR-3 ovarian | LXFL 529 NSCLC | OVCAR-8 ovarian | HCC-2998 colon | SF-539 CNS | UACC-62 melanoma | DMS 114 small cell lung | HL-60(TB) leukemia | A498 renal | SR leukemia | SNB-75 CNS | M19-MEL melanoma | NCI-H23 lung | SK-MEL-2 melanoma | 786-0 renal | SK-MEL-5 melanoma | MOLT-4 leukemia | HOP-18 NSCLC | RPMI-8226 leukemia | CCRF-CEM leukemia | HCT-15 colon | A549 NSCLC | HOP-92 NSCLC | M14 melanoma | ACHN renal

COc1cccc(NC(=O)CC(=O)N2NC(c3ccccc3)C(N=Nc3cccc(C(=O)O)c3)C2=O)c1 (stereo unspecified)
> 100 µM: SF-295 CNS | RXF 393 renal | SK-MEL-28 melanoma | SN12C renal | KM20L2 colon | HOP-62 NSCLC | SNB-19 CNS | OVCAR-4 ovarian | HT29 colon | DLD-1 colon | XF 498 CNS | SW-620 colon | UO-31 renal | MALME-3M melanoma | OVCAR-5 ovarian | TK-10 renal | UACC-257 melanoma | CAKI-1 renal | U251 CNS | NCI-H226 lung | LOX IMVI melanoma | SK-OV-3 ovarian | KM12 colon | SNB-78 CNS | HCT-116 colon | SF-268 CNS | NCI-H460 lung | IGROV1 ovarian | OVCAR-3 ovarian | LXFL 529 NSCLC | OVCAR-8 ovarian | HCC-2998 colon | SF-539 CNS | UACC-62 melanoma | DMS 114 small cell lung | A498 renal | SR leukemia | SNB-75 CNS | M19-MEL melanoma | EKVX NSCLC | NCI-H23 lung | 786-0 renal | SK-MEL-5 melanoma | MOLT-4 leukemia | RPMI-8226 leukemia | A549 NSCLC | HOP-92 NSCLC | M14 melanoma | ACHN renal

COC(=O)[C@]12CSCN1C(=O)C(C(C)=O)=NN2C(=O)[C@](OC)(c1ccccc1)C(F)(F)F
> 100 µM: SF-295 CNS | RXF 393 renal | SK-MEL-28 melanoma | SN12C renal | KM20L2 colon | HOP-62 NSCLC | SNB-19 CNS | NCI-H522 lung | OVCAR-4 ovarian | HT29 colon | K-562 leukemia | XF 498 CNS | SW-620 colon | UO-31 renal | MALME-3M melanoma | OVCAR-5 ovarian | DMS 273 small cell lung | TK-10 renal | COLO 205 colon | U251 CNS | NCI-H226 lung | LOX IMVI melanoma | KM12 colon | SNB-78 CNS | HCT-116 colon | SF-268 CNS | NCI-H460 lung | IGROV1 ovarian | OVCAR-3 ovarian | LXFL 529 NSCLC | OVCAR-8 ovarian | SF-539 CNS | UACC-62 melanoma | DMS 114 small cell lung | SNB-75 CNS | M19-MEL melanoma | EKVX NSCLC | NCI-H23 lung | SK-MEL-2 melanoma | 786-0 renal | SK-MEL-5 melanoma | MOLT-4 leukemia | RPMI-8226 leukemia | HCT-15 colon | A549 NSCLC | M14 melanoma | ACHN renal

CCCNC(=O)C(C)(Cl)C(=O)c1ccccc1O (stereo unspecified)
> 100 µM: RXF 393 renal | SK-MEL-28 melanoma | SN12C renal | KM20L2 colon | HOP-62 NSCLC | SNB-19 CNS | NCI-H522 lung | OVCAR-4 ovarian | K-562 leukemia | DLD-1 colon | SW-620 colon | UO-31 renal | MALME-3M melanoma | DMS 273 small cell lung | TK-10 renal | UACC-257 melanoma | CAKI-1 renal | COLO 205 colon | U251 CNS | NCI-H226 lung | SK-OV-3 ovarian | KM12 colon | SNB-78 CNS | HCT-116 colon | SF-268 CNS | NCI-H460 lung | IGROV1 ovarian | OVCAR-3 ovarian | LXFL 529 NSCLC | OVCAR-8 ovarian | HCC-2998 colon | SF-539 CNS | UACC-62 melanoma | DMS 114 small cell lung | HL-60(TB) leukemia | A498 renal | SR leukemia | SNB-75 CNS | M19-MEL melanoma | SK-MEL-2 melanoma | 786-0 renal | SK-MEL-5 melanoma | MOLT-4 leukemia | HOP-18 NSCLC | RPMI-8226 leukemia | CCRF-CEM leukemia | HCT-15 colon | A549 NSCLC | M14 melanoma | ACHN renal

Nc1nc2c(nc(N)n2Cc2ccccc2)c(=O)[nH]1
> 100 µM: SF-295 CNS | RXF 393 renal | SK-MEL-28 melanoma | SN12C renal | KM20L2 colon | HOP-62 NSCLC | SNB-19 CNS | NCI-H522 lung | OVCAR-4 ovarian | HT29 colon | K-562 leukemia | DLD-1 colon | XF 498 CNS | SW-620 colon | UO-31 renal | MALME-3M melanoma | OVCAR-5 ovarian | DMS 273 small cell lung | TK-10 renal | UACC-257 melanoma | CAKI-1 renal | COLO 205 colon | U251 CNS | LOX IMVI melanoma | SK-OV-3 ovarian | KM12 colon | HCT-116 colon | SF-268 CNS | NCI-H460 lung | IGROV1 ovarian | OVCAR-3 ovarian | LXFL 529 NSCLC | OVCAR-8 ovarian | HCC-2998 colon | UACC-62 melanoma | DMS 114 small cell lung | HL-60(TB) leukemia | A498 renal | SR leukemia | SNB-75 CNS | M19-MEL melanoma | EKVX NSCLC | NCI-H23 lung | SK-MEL-2 melanoma | 786-0 renal | SK-MEL-5 melanoma | MOLT-4 leukemia | RPMI-8226 leukemia | CCRF-CEM leukemia | HCT-15 colon | A549 NSCLC | HOP-92 NSCLC | M14 melanoma | ACHN renal
